Assay results from patent US5980913A, “Peptides having immunomodulatory activity” (Biochem Pharma, Inc., priority 1994, dated 1999).
Where a SMILES comes first, the peptide text is derived from it.

Assays:
T and B cells in spleen = test: In vivo/ex vivo mitogenic proliferation of T and B cells (spleen); parameters: species or system C57BL/6 mice; details: FIGS. 1A-1D
Procedure: (§1) C57BL.backslash.6 mice are treated with 0, 50, 100, 200, and 300 mg/kg of drug (in saline) for 4 consecutive days. Blood is taken by cardiac puncture on day 5, and the lymphocytes are isolated from spleen in the following manner:
(§2) The spleen is aseptically removed and mashed by pressing against a steel strainer with a rubber plunger. The cell suspension is separated from the clumps by letting them settle at the bottom of the tube. The cell suspension is then separated on a Lymphocyte M layer and the interface is recovered and resuspended in media.
2. Mitogenic proliferation of T and B cells (spleen)

[1] = system: spleen cell subsets (cell surface antigens); test: In vivo/ex vivo immunophenotyping in the spleen, mice treated 4 consecutive days; parameters: species or system C57BL/6 mice
Procedure: as §1, §2
1. Immunophenotyping (blood and spleen)
Cell immunophenotyping is performed on blood and spleen. The following cell surface antigens are analyzed:
CD4 (T helper/inducer, binds class II-restricted T cells);
CD8 (cytotoxic T cells, CTL adhesion);
MAC-1 (monocyte/macrophage);
NK (natural killer cells);
CD45 (all leukocytes, protein tyrosine phosphatase).

NCCCC[C@H](N)C(=O)N[C@@H](CC(N)=O)C(=O)N1CCC[C@H]1C(=O)N[C@@H](Cc1ccc(O)cc1)C(=O)O [PEPTIDE #1, H-Lys-Asn-Pro-Tyr-OH] (H-KNPY-OH)
activation of T and B cells in spleen in vivo/ex vivo (in words) (T and B cells in spleen): activate T and B cells | B cell subset, relative percentage ([1]; 50 mg/kg): 11.60 | CD4+ CD8+ cell subset, relative percentage ([1]; 50 mg/kg): 1.10 | CD4+ CD8- cell subset, relative percentage ([1]; 50 mg/kg): 38.30 | CD4+ CD11+ cell subset, relative percentage ([1]; 50 mg/kg): 0.17 | CD4+ CD11- cell subset, relative percentage ([1]; 50 mg/kg): 18.47 | CD4+ CD45+ cell subset, relative percentage ([1]; 50 mg/kg): 33.30 | CD4+ CD45- cell subset, relative percentage ([1]; 50 mg/kg): 6.10 | CD4- CD8+ cell subset, relative percentage ([1]; 50 mg/kg): 16.15 | CD4- CD8- cell subset, relative percentage ([1]; 50 mg/kg): 44.45 | CD4- CD11+ cell subset, relative percentage ([1]; 50 mg/kg): 1.20 | CD4- CD11- cell subset, relative percentage ([1]; 50 mg/kg): 80.17 | CD4- CD45+ cell subset, relative percentage ([1]; 50 mg/kg): 58.65 | CD4- CD45- cell subset, relative percentage ([1]; 50 mg/kg): 1.95 | CD8+ CD45+ cell subset, relative percentage ([1]; 50 mg/kg): 16.90 | CD8+ CD45- cell subset, relative percentage ([1]; 50 mg/kg): 0.10 | CD8- CD45+ cell subset, relative percentage ([1]; 50 mg/kg): 73.15 | CD8- CD45- cell subset, relative percentage ([1]; 50 mg/kg): 9.85 | CD45-8 cell subset, relative percentage ([1]; 50 mg/kg): 60.70 | CD45- Th1 cell subset, relative percentage ([1]; 50 mg/kg): 39.10 | NK+ CD3+ cell subset, relative percentage ([1]; 50 mg/kg): 4.70 | NK+ CD3- cell subset, relative percentage ([1]; 50 mg/kg): 7.47 | NK- CD3+ cell subset, relative percentage ([1]; 50 mg/kg): 42.80 | NK- CD3- cell subset, relative percentage ([1]; 50 mg/kg): 45.10 | B cell subset, relative percentage ([1]; 100 mg/kg): 14.97 | CD4+ CD8+ cell subset, relative percentage ([1]; 100 mg/kg): 2.40 | CD4+ CD8- cell subset, relative percentage ([1]; 100 mg/kg): 32.30 | CD4+ CD11+ cell subset, relative percentage ([1]; 100 mg/kg): 0.20 | CD4+ CD11- cell subset, relative percentage ([1]; 100 mg/kg): 18.23 | CD4+ CD45+ cell subset, relative percentage ([1]; 100 mg/kg): 30.90 | CD4+ CD45- cell subset, relative percentage ([1]; 100 mg/kg): 3.80 | CD4- CD8+ cell subset, relative percentage ([1]; 100 mg/kg): 12.45 | CD4- CD8- cell subset, relative percentage ([1]; 100 mg/kg): 52.85 | CD4- CD11+ cell subset, relative percentage ([1]; 100 mg/kg): 1.53 | CD4- CD11- cell subset, relative percentage ([1]; 100 mg/kg): 80.07 | CD4- CD45+ cell subset, relative percentage ([1]; 100 mg/kg): 61.45 | CD4- CD45- cell subset, relative percentage ([1]; 100 mg/kg): 3.85 | CD8+ CD45+ cell subset, relative percentage ([1]; 100 mg/kg): 14.25 | CD8+ CD45- cell subset, relative percentage ([1]; 100 mg/kg): 0.05 | CD8- CD45+ cell subset, relative percentage ([1]; 100 mg/kg): 76.35 | CD8- CD45- cell subset, relative percentage ([1]; 100 mg/kg): 9.35 | CD45-8 cell subset, relative percentage ([1]; 100 mg/kg): 65.55 | CD45- Th1 cell subset, relative percentage ([1]; 100 mg/kg): 34.55 | NK+ CD3+ cell subset, relative percentage ([1]; 100 mg/kg): 4.40 | NK+ CD3- cell subset, relative percentage ([1]; 100 mg/kg): 7.93 | NK- CD3+ cell subset, relative percentage ([1]; 100 mg/kg): 41.50 | NK- CD3- cell subset, relative percentage ([1]; 100 mg/kg): 46.20 | B cell subset, relative percentage ([1]; 200 mg/kg): 16.33 | CD4+ CD8+ cell subset, relative percentage ([1]; 200 mg/kg): 2.27 | CD4+ CD8- cell subset, relative percentage ([1]; 200 mg/kg): 29.50 | CD4+ CD11+ cell subset, relative percentage ([1]; 200 mg/kg): 0.20 | CD4+ CD11- cell subset, relative percentage ([1]; 200 mg/kg): 20.03 | CD4+ CD45+ cell subset, relative percentage ([1]; 200 mg/kg): 27.98 | CD4+ CD45- cell subset, relative percentage ([1]; 200 mg/kg): 3.77 | CD4- CD8+ cell subset, relative percentage ([1]; 200 mg/kg): 12.49 | CD4- CD8- cell subset, relative percentage ([1]; 200 mg/kg): 40.94 | CD4- CD11+ cell subset, relative percentage ([1]; 200 mg/kg): 1.53 | CD4- CD11- cell subset, relative percentage ([1]; 200 mg/kg): 78.27 | CD4- CD45+ cell subset, relative percentage ([1]; 200 mg/kg): 43.44 | CD4- CD45- cell subset, relative percentage ([1]; 200 mg/kg): 2.31 | CD8+ CD45+ cell subset, relative percentage ([1]; 200 mg/kg): 12.36 | CD8+ CD45- cell subset, relative percentage ([1]; 200 mg/kg): 0.04 | CD8- CD45+ cell subset, relative percentage ([1]; 200 mg/kg): 62.30 | CD8- CD45- cell subset, relative percentage ([1]; 200 mg/kg): 7.32 | CD45-8 cell subset, relative percentage ([1]; 200 mg/kg): 53.14 | CD45- Th1 cell subset, relative percentage ([1]; 200 mg/kg): 31.64 | NK+ CD3+ cell subset, relative percentage ([1]; 200 mg/kg): 5.27 | NK+ CD3- cell subset, relative percentage ([1]; 200 mg/kg): 8.07 | NK- CD3+ cell subset, relative percentage ([1]; 200 mg/kg): 44.33 | NK- CD3- cell subset, relative percentage ([1]; 200 mg/kg): 42.33 | B cell subset, relative percentage ([1]; 300 mg/kg): 14.60 | CD4+ CD8+ cell subset, relative percentage ([1]; 300 mg/kg): 4.33 | CD4+ CD8- cell subset, relative percentage ([1]; 300 mg/kg): 34.30 | CD4+ CD11+ cell subset, relative percentage ([1]; 300 mg/kg): 0.53 | CD4+ CD11- cell subset, relative percentage ([1]; 300 mg/kg): 20.53 | CD4+ CD45+ cell subset, relative percentage ([1]; 300 mg/kg): 35.00 | CD4+ CD45- cell subset, relative percentage ([1]; 300 mg/kg): 3.67 | CD4- CD8+ cell subset, relative percentage ([1]; 300 mg/kg): 16.17 | CD4- CD8- cell subset, relative percentage ([1]; 300 mg/kg): 45.20 | CD4- CD11+ cell subset, relative percentage ([1]; 300 mg/kg): 2.23 | CD4- CD11- cell subset, relative percentage ([1]; 300 mg/kg): 76.67 | CD4- CD45+ cell subset, relative percentage ([1]; 300 mg/kg): 57.40 | CD4- CD45- cell subset, relative percentage ([1]; 300 mg/kg): 3.97 | CD8+ CD45+ cell subset, relative percentage ([1]; 300 mg/kg): 19.77 | CD8+ CD45- cell subset, relative percentage ([1]; 300 mg/kg): 0.03 | CD8- CD45+ cell subset, relative percentage ([1]; 300 mg/kg): 69.93 | CD8- CD45- cell subset, relative percentage ([1]; 300 mg/kg): 10.30 | CD45-8 cell subset, relative percentage ([1]; 300 mg/kg): 61.63 | CD45- Th1 cell subset, relative percentage ([1]; 300 mg/kg): 38.43 | NK+ CD3+ cell subset, relative percentage ([1]; 300 mg/kg): 9.47 | NK+ CD3- cell subset, relative percentage ([1]; 300 mg/kg): 10.83 | NK- CD3+ cell subset, relative percentage ([1]; 300 mg/kg): 41.10 | NK- CD3- cell subset, relative percentage ([1]; 300 mg/kg): 38.63 | change of relative percentage of CD8+CD45+ (cytotoxic T cells) subset (in words) ([1]; 200 and 300 mg/kg): significant increase | change of relative percentage of NK+CD3+ (NK cells) subset (in words) ([1]; 200 and 300 mg/kg): significant increase
